From patent publication US9073855B2, “BCL-2 selective apoptosis-inducing agents for the treatment of cancer and immune diseases” (AbbVie Inc., priority 2008, dated 2015)

Experiments:
FL5.12/Bcl-2 cells = assay: FL5.12/Bcl-2 cell viability assay under IL-3 withdrawal (CellTitre Glo); format: cell-based, murine; details: Mus musculus, IL-3 withdrawn 48 hrs, then 24 hrs with compound
Excerpt: FL5.12 is an IL-3 dependent prolymphocytic murine cell line that undergoes apoptosis upon IL-3 withdrawal as a result of the upregulation of pro-apoptotic Bcl-2 proteins such as Bim and Puma. Stable overexpression of anti-apoptotic Bcl-2 protein (FL5.12/Bcl-2) protects against apoptosis induced by IL-3 withdrawal by sequestration of Bim and Puma. […] The ability of compounds to kill FL5.12/Bcl-2 cells upon IL-3 withdrawal is a direct measure of the compounds' ability to inhibit anti-apoptotic Bcl-2 protein function.
Wild type FL5.12/Bcl-2 overexpressing stable transfectants were cultured in RPMI-1640 supplemented with 2 mM L-glutamine, 10% FBS, 1 mM sodium pyruvate, 2 mM HEPES, 1% penicillin/streptomycin (Invitrogen), 57 μM β-ME, and 10% WEHI-3B conditioned medium (source of IL-3) and maintained at 37° C. containing 5% CO2. 1×10^6 cells/ml were washed 1×PBS and resuspended in medium not supplemented with 10% WEHI-3B for 48 hrs prior to cytotoxicity assays. Cells were then treated for an additional 24 hrs in the presence of various concentrations of the indicated compounds. Cell viability was assessed by CellTitre Glo assay (Promega Corp.) according to the manufacturer's recommendations.

GST-Bcl-2 = GST-Bcl-2 (Homo sapiens, UniProt P10415); assay: TR-FRET binding assay, GST-Bcl-2 with F-Bak peptide probe; details: for Ki: TR-FRET Binding Affinity, GST-Bcl-2, F-Bak peptide probe
Chain of GST-Bcl-2 (P10415 whole entry, the tested form may be a part): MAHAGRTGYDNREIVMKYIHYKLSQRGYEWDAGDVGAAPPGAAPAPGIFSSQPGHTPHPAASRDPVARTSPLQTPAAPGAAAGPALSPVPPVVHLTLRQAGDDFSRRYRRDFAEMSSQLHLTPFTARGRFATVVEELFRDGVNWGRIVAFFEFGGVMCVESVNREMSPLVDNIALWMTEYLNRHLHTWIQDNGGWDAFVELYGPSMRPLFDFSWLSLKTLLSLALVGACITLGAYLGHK
In short: (§1)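 Competitive TR-FRET: GST-fusion protein, fluorescent Bak peptide probe and Tb-labelled anti-GST antibody incubated with compound dilution series (starting 50 μM as 2× stock, 10% DMSO) for 3 h at RT. Excitation 340/35 nm; Ki derived via Wang's exact competitive-binding equation.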

GST-Bcl-XL = GST-Bcl-XL (Homo sapiens, UniProt Q07817); assay: TR-FRET binding assay, GST-Bcl-XL with F-Bak peptide probe; details: TR-FRET Binding Affinity, GST-Bcl-XL, F-Bak peptide probe
Chain of GST-Bcl-XL (Q07817 whole entry): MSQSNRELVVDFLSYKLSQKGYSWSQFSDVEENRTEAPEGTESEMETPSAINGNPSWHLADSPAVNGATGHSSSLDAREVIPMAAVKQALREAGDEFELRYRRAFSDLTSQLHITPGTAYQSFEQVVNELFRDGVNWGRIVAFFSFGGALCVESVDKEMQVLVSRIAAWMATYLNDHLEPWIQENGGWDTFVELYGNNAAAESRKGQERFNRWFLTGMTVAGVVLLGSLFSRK
In short: as §1

| SMILES | EC50 (FL5.12/Bcl-2 cells) [nM] | Ki (GST-Bcl-2) [nM] | Ki (GST-Bcl-XL) [nM] | Binding selectivity ratio (Bcl-XL Ki/Bcl-2 Ki) (GST-Bcl-2; ratio of TR-FRET Ki values, Bcl-XL over Bcl-2) |
| --- | --- | --- | --- | --- |
| O=C(NS(=O)(=O)c1ccc(NC2CCN(C3CCOCC3)CC2)c([N+](=O)[O-])c1)c1ccc(N2CCN(Cc3ccc(C(F)(F)F)cc3-c3ccc(Cl)cc3)CC2)cc1Oc1ccc2[nH]ccc2c1 [Example 358, 4-(4-{[4′-chloro-5-(trifluoromethyl)-1,1′-biphenyl-2-yl]methyl}piperazin-1-yl)-2-(1H-indol-5-yloxy)-N-({3-nitro-4-[(1-tetrahydro-2H-pyran-4-ylpiperidin-4-yl)amino]phenyl}sulfonyl)benzamide] | > 500 | 5.42 | > 660 | – |
| CC1(C)CCC(CN2CCN(c3ccc(C(=O)NS(=O)(=O)c4ccc(NCC5(N)CCCCC5)c([N+](=O)[O-])c4)c(Oc4ccc5[nH]ccc5c4)c3)CC2)=C(c2ccc(Cl)cc2)C1 [Example 250, N-[(4-{[(1-aminocyclohexyl)methyl]amino}-3-nitrophenyl)sulfonyl]-4-(4-{[2-(4-chlorophenyl)-4,4-dimethylcyclohex-1-en-1-yl]methyl}piperazin-1-yl)-2-(1H-indol-5-yloxy)benzamide] | 79.5 | 0.266 | 215 | – |
| CC1(C)CCC(CN2CCN(c3ccc(C(=O)NS(=O)(=O)c4ccc(NCC5CCOCC5)c([N+](=O)[O-])c4)c(Oc4ccc5[nH]ccc5c4)c3)CC2)=C(c2ccc(Cl)cc2)C1 [Example 177, 4-(4-{[2-(4-chlorophenyl)-4,4-dimethylcyclohex-1-en-1-yl]methyl}piperazin-1-yl)-2-(1H-indol-5-yloxy)-N-({3-nitro-4-[(tetrahydro-2H-pyran-4-ylmethyl)amino]phenyl}sulfonyl)benzamide] | 19.7 | 0.165 | 132 | – |
| CC1(C)CCC(CN2CCN(c3ccc(C(=O)NS(=O)(=O)c4ccc(NCC5COCCO5)c([N+](=O)[O-])c4)c(Oc4ccc5[nH]ccc5c4)c3)CC2)=C(c2ccc(Cl)cc2)C1 (stereo not drawn) [Example 336, 4-(4-{[2-(4-chlorophenyl)-4,4-dimethylcyclohex-1-en-1-yl]methyl}piperazin-1-yl)-N-({4-[(1,4-dioxan-2-ylmethyl)amino]-3-nitrophenyl}sulfonyl)-2-(1H-indol-5-yloxy)benzamide] | 7.49 | 0.105 | 242 | – |
| CC1(C)CCC(CN2CCN(c3ccc(C(=O)NS(=O)(=O)c4ccc(NC5CCN(C6CCOCC6)CC5)c([N+](=O)[O-])c4)c(Oc4cccc5[nH]ncc45)c3)CC2)=C(c2ccc(Cl)cc2)C1 [Example 401, 4-(4-{[2-(4-chlorophenyl)-4,4-dimethylcyclohex-1-en-1-yl]methyl}piperazin-1-yl)-2-(1H-indazol-4-yloxy)-N-({3-nitro-4-[(1-tetrahydro-2H-pyran-4-ylpiperidin-4-yl)amino]phenyl}sulfonyl)benzamide] | 5.38 | < 0.01 | 1.62 | >162.1 |
| CNc1ccc(S(=O)(=O)NC(=O)c2ccc(N3CCN(CC4=C(c5ccc(Cl)cc5)CC(C)(C)CC4)CC3)cc2Oc2ccc3[nH]ccc3c2)cc1S(=O)(=O)C(F)(F)F [Example 328, 4-(4-{[2-(4-chlorophenyl)-4,4-dimethylcyclohex-1-en-1-yl]methyl}piperazin-1-yl)-2-(1H-indol-5-yloxy)-N-({4-(methylamino)-3-[(trifluoromethyl)sulfonyl]phenyl}sulfonyl)benzamide] | > 500 | 1.86 | > 660 | – |
| CC1(C)CCC(CN2CCN(c3ccc(C(=O)NS(=O)(=O)c4ccc(NC5(CO)CCOCC5)c([N+](=O)[O-])c4)c(Oc4ccc5[nH]ccc5c4)c3)CC2)=C(c2ccc(Cl)cc2)C1 [Example 240, 4-(4-{[2-(4-chlorophenyl)-4,4-dimethylcyclohex-1-en-1-yl]methyl}piperazin-1-yl)-N-[(4-{[4-(hydroxymethyl)tetrahydro-2H-pyran-4-yl]amino}-3-nitrophenyl)sulfonyl]-2-(1H-indol-5-yloxy)benzamide] | 209 | 0.83 | > 660 | – |
| O=C(NS(=O)(=O)c1ccc(NCC2CCOCC2)c([N+](=O)[O-])c1)c1ccc(N2CCN(Cc3cc(OCCO)ccc3-c3ccc(Cl)cc3)CC2)cc1Oc1cccc2[nH]ccc12 [Example 213, 4-(4-{[4′-chloro-4-(2-hydroxyethoxy)-1,1′-biphenyl-2-yl]methyl}piperazin-1-yl)-2-(1H-indol-4-yloxy)-N-({3-nitro-4-[(tetrahydro-2H-pyran-4-ylmethyl)amino]phenyl}sulfonyl)benzamide] | 432 | < 0.01 | > 660 | – |
| CC1(C)CCC(CN2CCN(c3ccc(C(=O)NS(=O)(=O)c4ccc(NC(CO)C5CCOCC5)c([N+](=O)[O-])c4)c(Oc4ccc5[nH]ccc5c4)c3)CC2)=C(c2ccc(Cl)cc2)C1 (stereo not drawn) [Example 242, 4-(4-{[2-(4-chlorophenyl)-4,4-dimethylcyclohex-1-en-1-yl]methyl}piperazin-1-yl)-N-({4-[(2-hydroxy-1-tetrahydro-2H-pyran-4-ylethyl)amino]-3-nitrophenyl}sulfonyl)-2-(1H-indol-5-yloxy)benzamide] | 165 | 1.8 | > 660 | – |
| CC1(C)CCC(CN2CCN(c3ccc(C(=O)NS(=O)(=O)c4ccc(NCC5CCOCC5)c(S(=O)(=O)C(F)(F)F)c4)c(Oc4ccc5[nH]ccc5c4)c3)CC2)=C(c2ccc(Cl)cc2)C1 [Example 304, 4-(4-{[2-(4-chlorophenyl)-4,4-dimethylcyclohex-1-en-1-yl]methyl}piperazin-1-yl)-2-(1H-indol-5-yloxy)-N-({4-[(tetrahydro-2H-pyran-4-ylmethyl)amino]-3-[(trifluoromethyl)sulfonyl]phenyl}sulfonyl)benzamide] | 415 | – | > 660 | – |
| CC1(C)CCC(CN2CCN(c3ccc(C(=O)NS(=O)(=O)c4ccc(NC[C@H]5CCCOC5)c([N+](=O)[O-])c4)c(Oc4ccc5[nH]ccc5c4)c3)CC2)=C(c2ccc(Cl)cc2)C1 [Example 181, 4-(4-{[2-(4-chlorophenyl)-4,4-dimethylcyclohex-1-en-1-yl]methyl}piperazin-1-yl)-2-(1H-indol-5-yloxy)-N-[(3-nitro-4-{[(3R)-tetrahydro-2H-pyran-3-ylmethyl]amino}phenyl)sulfonyl]benzamide] | 33.5 | – | > 660 | – |
| CC1(C)CCC(CN2CCN(c3ccc(C(=O)NS(=O)(=O)c4ccc(N[C@H]5CC[C@H](N6CCOCC6)CC5)c([N+](=O)[O-])c4)c(Oc4ccc5[nH]ccc5c4)c3)CC2)=C(c2ccc(Cl)cc2)C1 [Example 178, Trans-4-(4-{[2-(4-chlorophenyl)-4,4-dimethylcyclohex-1-en-1-yl]methyl}piperazin-1-yl)-2-(1H-indol-5-yloxy)-N-({4-[(4-morpholin-4-ylcyclohexyl)amino]-3-nitrophenyl}sulfonyl)benzamide] | 18.6 | – | > 660 | – |
| CC1(C)CCC(CN2CCN(c3ccc(C(=O)NS(=O)(=O)c4ccc(OCC5COCCO5)c([N+](=O)[O-])c4)c(Oc4ccc5[nH]ccc5c4)c3)CC2)=C(c2ccc(Cl)cc2)C1 (stereo not drawn) [Example 297, 4-(4-{[2-(4-chlorophenyl)-4,4-dimethylcyclohex-1-en-1-yl]methyl}piperazin-1-yl)-N-{[4-(1,4-dioxan-2-ylmethoxy)-3-nitrophenyl]sulfonyl}-2-(1H-indol-5-yloxy)benzamide] | 13.2 | – | 283 | – |
| CC1(C)CCC(CN2CCN(c3ccc(C(=O)NS(=O)(=O)c4ccc(NCC5CCCOC5)c([N+](=O)[O-])c4)c(Oc4ccc5[nH]ccc5c4)c3)CC2)=C(c2ccc(Cl)cc2)C1 (stereo not drawn) [Example 261, 4-(4-{[2-(4-chlorophenyl)-4,4-dimethylcyclohex-1-en-1-yl]methyl}piperazin-1-yl)-2-(1H-indol-5-yloxy)-N-({3-nitro-4-[(tetrahydro-2H-pyran-3-ylmethyl)amino]phenyl}sulfonyl)benzamide] | 17 | – | > 660 | – |
| COCCNc1ccc(S(=O)(=O)NC(=O)c2ccc(N3CCN(CC4=C(c5ccc(Cl)cc5)CC(C)(C)CC4)CC3)cc2Oc2ccc3[nH]ccc3c2)cc1S(=O)(=O)C(F)(F)F [Example 315, 4-(4-{[2-(4-chlorophenyl)-4,4-dimethylcyclohex-1-en-1-yl]methyl}piperazin-1-yl)-2-(1H-indol-5-yloxy)-N-({4-[(2-methoxyethyl)amino]-3-[(trifluoromethyl)sulfonyl]phenyl}sulfonyl)benzamide] | > 500 | – | > 660 | – |
| CC1(C)CCC(CN2CCN(c3ccc(C(=O)NS(=O)(=O)c4ccc(NC[C@@H]5CCCOC5)c([N+](=O)[O-])c4)c(Oc4ccc5[nH]ccc5c4)c3)CC2)=C(c2ccc(Cl)cc2)C1 [Example 180, 4-(4-{[2-(4-chlorophenyl)-4,4-dimethylcyclohex-1-en-1-yl]methyl}piperazin-1-yl)-2-(1H-indol-5-yloxy)-N-[(3-nitro-4-{[(3S)-tetrahydro-2H-pyran-3-ylmethyl]amino}phenyl)sulfonyl]benzamide] | 20.5 | – | > 660 | – |
